# Data taken from patent US10681909B2, “Herbicidal triazoles” (FMC Corporation, priority 2014, dated 2020).
# Legend:
# [1] = system: barnyardgrass; experiment: Test A preemergence; type: in vivo, Echinochloa crus-galli; conditions: 0 to 100 scale (0 no effect, 100 complete control)
# Method in brief: (§1)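 For preemergence, seeds were sown in a loam soil-sand blend and given a directed soil spray of test chemical in a non-phytotoxic solvent mixture with surfactant. For postemergence, plants in pots of the same blend were sprayed with the same formulation at the one- to two-leaf stage, 2 to 10 cm tall.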
# [2] = system: foxtail, giant; experiment: Test A preemergence; type: in vivo, Setaria faberii; conditions: 0 to 100 scale (0 no effect, 100 complete control)
# Method in brief: as §1
# [3] = system: pigweed; experiment: Test A preemergence; type: in vivo, Amaranthus retroflexus; conditions: 0 to 100 scale (0 no effect, 100 complete control)
# Method in brief: as §1
# [4] = system: barnyardgrass; experiment: Test A postemergence; type: in vivo, Echinochloa crus-galli; conditions: 0 to 100 scale (0 no effect, 100 complete control), approx. 10 d
# Method in brief: as §1
# [5] = system: foxtail, giant; experiment: Test A postemergence; type: in vivo, Setaria faberii; conditions: 0 to 100 scale (0 no effect, 100 complete control), approx. 10 d
# Method in brief: as §1
# [6] = system: pigweed; experiment: Test A postemergence; type: in vivo, Amaranthus retroflexus; conditions: 0 to 100 scale (0 no effect, 100 complete control), approx. 10 d
# Method in brief: as §1
# [7] = system: wheat; experiment: Test A postemergence; type: in vivo, Triticum aestivum; conditions: 0 to 100 scale (0 no effect, 100 complete control), approx. 10 d
# Method in brief: as §1
# [8] = system: corn; experiment: Test A postemergence; type: in vivo, Zea mays; conditions: 0 to 100 scale (0 no effect, 100 complete control), approx. 10 d
# Method in brief: as §1
# [9] = system: rice; experiment: Test B flooded paddy test; type: in vivo, Oryza sativa; conditions: 250 g ai/ha, applied to paddy water at 2-leaf stage, visual rating after 13 to 15 d, scale 0 (no effect) to 100 (complete control)
# Method in brief: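 Pots were flooded to 3 cm above the soil at treatment, and compounds were applied directly into the paddy water. That depth was held throughout. After 13 to 15 d in a greenhouse, plants were rated visually against untreated controls.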
# [10] = system: ryegrass, Italian; experiment: Test C postemergence; type: in vivo, Lolium multiflorum
# Method in brief: (§2)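 Test chemicals in a non-phytotoxic solvent mixture with surfactant were applied to pots of plants at 2 to 18 cm (1- to 4-leaf stage) for postemergence treatment, grown in a peat-based medium with vermiculite, starter nutrients and dolomitic limestone. Preemergence treatment was to seeds freshly planted in loam soil mixed with sand.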
# [11] = system: wheat (winter wheat); experiment: Test C postemergence; type: in vivo, Triticum aestivum
# Method in brief: as §2
# [12] = system: galium; experiment: Test C postemergence; type: in vivo, Galium aparine
# Method in brief: as §2
# [13] = system: corn; experiment: Test C postemergence; type: in vivo, Zea mays
# Method in brief: as §2
# [14] = system: crabgrass, large; experiment: Test C postemergence; type: in vivo, Digitaria sanguinalis
# Method in brief: as §2
# [15] = system: lambsquarters; experiment: Test C postemergence; type: in vivo, Chenopodium album
# Method in brief: as §2
# [16] = system: nutsedge, yellow; experiment: Test C postemergence; type: in vivo, Cyperus esculentus
# Method in brief: as §2
# [17] = system: pigweed; experiment: Test C postemergence; type: in vivo, Amaranthus retroflexus
# Method in brief: as §2
# [18] = system: soybean; experiment: Test C postemergence; type: in vivo, Glycine max
# Method in brief: as §2
# [19] = system: oilseed rape; experiment: Test C postemergence; type: in vivo, Brassica napus
# Method in brief: as §2
# [20] = system: waterhemp; experiment: Test C postemergence; type: in vivo, Amaranthus rudis
# Method in brief: as §2
# [21] = system: velvetleaf; experiment: Test C postemergence; type: in vivo, Abutilon theophrasti
# Method in brief: as §2
structure (smiles),measurement,setting,value
COc1nc(-c2ccc(C(F)(F)F)cc2)nn1Cc1ccnc(C(F)(F)F)c1 [Compound 25],"Plant response rating, Barnyardgrass",[1]; 31 g ai/ha,10
same,"Plant response rating, Barnyardgrass",[1]; 125 g ai/ha,70
same,"Plant response rating, Foxtail, Giant",[2]; 31 g ai/ha,70
same,"Plant response rating, Foxtail, Giant",[2]; 125 g ai/ha,100
same,"Plant response rating, Pigweed",[3]; 31 g ai/ha,90
same,"Plant response rating, Pigweed",[3]; 125 g ai/ha,100
same,"Plant response rating, Barnyardgrass",[4]; 31 g ai/ha,20
same,"Plant response rating, Barnyardgrass",[4]; 125 g ai/ha,60
same,"Plant response rating, Foxtail, Giant",[5]; 31 g ai/ha,50
same,"Plant response rating, Foxtail, Giant",[5]; 125 g ai/ha,90
same,"Plant response rating, Pigweed",[6]; 31 g ai/ha,90
same,"Plant response rating, Pigweed",[6]; 125 g ai/ha,100
same,"Plant response rating, Wheat",[7]; 31 g ai/ha,10
same,"Plant response rating, Wheat",[7]; 125 g ai/ha,20
same,"Plant response rating, Corn",[8]; 31 g ai/ha,10
same,"Plant response rating, Corn",[8]; 125 g ai/ha,30
same,"Plant response rating, Rice, Flood",[9],25
same,Plant response rating (scale of 0 to 100 where 0 is no effect and 100 is complete control),[10]; 31 g ai/ha,5
same,Plant response rating (scale of 0 to 100 where 0 is no effect and 100 is complete control),[10]; 62 g ai/ha,5
same,Plant response rating (scale of 0 to 100 where 0 is no effect and 100 is complete control),[10]; 125 g ai/ha,10
same,Plant response rating (scale of 0 to 100 where 0 is no effect and 100 is complete control),[10]; 250 g ai/ha,30
same,Plant response rating (scale of 0 to 100 where 0 is no effect and 100 is complete control),[11]; 31 g ai/ha,5
same,Plant response rating (scale of 0 to 100 where 0 is no effect and 100 is complete control),[11]; 62 g ai/ha,5
same,Plant response rating (scale of 0 to 100 where 0 is no effect and 100 is complete control),[11]; 125 g ai/ha,5
same,Plant response rating (scale of 0 to 100 where 0 is no effect and 100 is complete control),[11]; 250 g ai/ha,10
same,Plant response rating (scale of 0 to 100 where 0 is no effect and 100 is complete control),[12]; 31 g ai/ha,80
same,Plant response rating (scale of 0 to 100 where 0 is no effect and 100 is complete control),[12]; 62 g ai/ha,90
same,Plant response rating (scale of 0 to 100 where 0 is no effect and 100 is complete control),[12]; 125 g ai/ha,90
same,Plant response rating (scale of 0 to 100 where 0 is no effect and 100 is complete control),[12]; 250 g ai/ha,90
same,Plant response rating (scale of 0 to 100 where 0 is no effect and 100 is complete control),[13]; 31 g ai/ha,20
same,Plant response rating (scale of 0 to 100 where 0 is no effect and 100 is complete control),[13]; 62 g ai/ha,20
same,Plant response rating (scale of 0 to 100 where 0 is no effect and 100 is complete control),[13]; 125 g ai/ha,25
same,Plant response rating (scale of 0 to 100 where 0 is no effect and 100 is complete control),[13]; 250 g ai/ha,25
same,Plant response rating (scale of 0 to 100 where 0 is no effect and 100 is complete control),[14]; 31 g ai/ha,15
same,Plant response rating (scale of 0 to 100 where 0 is no effect and 100 is complete control),[14]; 62 g ai/ha,20
same,Plant response rating (scale of 0 to 100 where 0 is no effect and 100 is complete control),[14]; 125 g ai/ha,30
same,Plant response rating (scale of 0 to 100 where 0 is no effect and 100 is complete control),[14]; 250 g ai/ha,45
same,Plant response rating (scale of 0 to 100 where 0 is no effect and 100 is complete control),[15]; 31 g ai/ha,90
same,Plant response rating (scale of 0 to 100 where 0 is no effect and 100 is complete control),[15]; 62 g ai/ha,90
same,Plant response rating (scale of 0 to 100 where 0 is no effect and 100 is complete control),[15]; 125 g ai/ha,98
same,Plant response rating (scale of 0 to 100 where 0 is no effect and 100 is complete control),[15]; 250 g ai/ha,98
same,Plant response rating (scale of 0 to 100 where 0 is no effect and 100 is complete control),[16]; 31 g ai/ha,20
same,Plant response rating (scale of 0 to 100 where 0 is no effect and 100 is complete control),[16]; 62 g ai/ha,20
same,Plant response rating (scale of 0 to 100 where 0 is no effect and 100 is complete control),[16]; 125 g ai/ha,25
same,Plant response rating (scale of 0 to 100 where 0 is no effect and 100 is complete control),[16]; 250 g ai/ha,25
same,Plant response rating (scale of 0 to 100 where 0 is no effect and 100 is complete control),[17]; 31 g ai/ha,100
same,Plant response rating (scale of 0 to 100 where 0 is no effect and 100 is complete control),[17]; 62 g ai/ha,100
same,Plant response rating (scale of 0 to 100 where 0 is no effect and 100 is complete control),[17]; 125 g ai/ha,100
same,Plant response rating (scale of 0 to 100 where 0 is no effect and 100 is complete control),[17]; 250 g ai/ha,100
same,Plant response rating (scale of 0 to 100 where 0 is no effect and 100 is complete control),[18]; 31 g ai/ha,45
same,Plant response rating (scale of 0 to 100 where 0 is no effect and 100 is complete control),[18]; 62 g ai/ha,70
same,Plant response rating (scale of 0 to 100 where 0 is no effect and 100 is complete control),[18]; 125 g ai/ha,50
same,Plant response rating (scale of 0 to 100 where 0 is no effect and 100 is complete control),[18]; 250 g ai/ha,65
same,Plant response rating (scale of 0 to 100 where 0 is no effect and 100 is complete control),"[19]; Oilsee Rape, 250 g ai/ha",90
same,Plant response rating (scale of 0 to 100 where 0 is no effect and 100 is complete control),"[19]; Oilseed Rape, 31 g ai/ha",90
same,Plant response rating (scale of 0 to 100 where 0 is no effect and 100 is complete control),"[19]; Oilseed Rape, 62 g ai/ha",90
same,Plant response rating (scale of 0 to 100 where 0 is no effect and 100 is complete control),"[19]; Oilseed Rape, 125 g ai/ha",90
same,Plant response rating (scale of 0 to 100 where 0 is no effect and 100 is complete control),[20]; 31 g ai/ha,95
same,Plant response rating (scale of 0 to 100 where 0 is no effect and 100 is complete control),[20]; 62 g ai/ha,95
same,Plant response rating (scale of 0 to 100 where 0 is no effect and 100 is complete control),[20]; 125 g ai/ha,98
same,Plant response rating (scale of 0 to 100 where 0 is no effect and 100 is complete control),[20]; 250 g ai/ha,95
same,Plant response rating (scale of 0 to 100 where 0 is no effect and 100 is complete control),[21]; 31 g ai/ha,35
same,Plant response rating (scale of 0 to 100 where 0 is no effect and 100 is complete control),[21]; 62 g ai/ha,50
same,Plant response rating (scale of 0 to 100 where 0 is no effect and 100 is complete control),[21]; 125 g ai/ha,70
same,Plant response rating (scale of 0 to 100 where 0 is no effect and 100 is complete control),[21]; 250 g ai/ha,75
